# Laboratory results taken from patent US10828301B2, “2,4-pyrimidinediamine compounds and their uses” (Rigel Pharmaceuticals, Inc, priority 2002, dated 2020).
# Counter-ions that a name gives are not always drawn.
# System: cultured human mast cells (CHMC)
# Test: CHMC low cell density IgE activation: tryptase and LTC4 assays
# Type: cell-based
# Settings: Homo sapiens, Mast cell, Low Density CHMC, anti-IgE activation, hexosaminidase readout; read-out: CHMC anti-IgE Hexos.
# Experimental: Pellet CHMC cells (980 rpm, 10 min) and resuspend in pre-warmed MT. Add 65 ul of cells to each 96-well plate. Depending on the degranulation activity for each particular CHMC donor, load 1000-1500 cells/well. Mix four times followed by a 1 hr incubation at 37° C. […] Stimulate cells by adding 25 ul of 6× anti-IgE solution to the appropriate plates. Add 25 ul MT to un-stimulated control wells. Mix twice following addition of the anti-IgE. Incubate at 37° C. for 30 minutes. […] Spin plates at 1000 rpm for 10 min to pellet cells. Transfer 25 ul of supernatant to a 96-well black bottom plate and add 100 ul of freshly diluted tryptase substrate solution to each well. Incubate plates at room temperature for 30 min.
# Leukotriene C4 (LTC4) is also quantified using an ELISA kit on appropriately diluted supernatant samples (determined empirically for each donor cell population so that the sample measurement falls within the standard curve) following the supplier's instructions.
row,IC50,SMILES
1,> 10 µM,"COCCNc1ncc(F)c(Nc2ccc3c(c2)OCCO3)n1 [Compound R926229, N4-(3,4-Ethylenedioxyphenyl)-5-fluoro-N2-(2-methoxyethyl)-2,4-pyrimidinediamine]"
2,> 10 µM,"COc1ccc(CNc2ncc(F)c(Nc3ccc4c(c3)OCCO4)n2)cc1 [Compound R926230, N4-(3,4-Ethylenedioxyphenyl)-5-fluoro-N2-(4-methoxybenzyl)-2,4-pyrimidinediamine]"

# Same assay, conditions: Homo sapiens, Mast cell, Low Density CHMC, anti-IgE activation, tryptase readout; read-out: CHMC anti-IgE Tryptase
row,SMILES,IC50
1,"CC(=O)c1cccc(Nc2ncc(F)c(Nc3cccc(C(C)=O)c3)n2)c1 [Compound R950376, N2,N4-Bis(3-methylcarbonylphenyl)-5-fluoro-2,4-pyrimidinediamine]",2.54 µM
2,"Nc1cc(Nc2ccnc(Nc3cc(N)cc(C(F)(F)F)c3)n2)cc(C(F)(F)F)c1 [Compound R950143, N2,N4-Bis(3-amino-5-trifluoromethylphenyl)-2,4-pyrimidinediamine]",8.23 µM
3,"O=C(O)c1cc2cc(Nc3ncc(F)c(Nc4ccc5c(c4)OCCO5)n3)ccc2o1 [Compound R926698, N4-(3,4-Ethylenedioxyphenyl)-5-fluoro-N2-(2-carboxybenzofuran-5-yl)-2,4-pyrimidinediamine]",> 10 µM
4,"O=C(O)c1cc2cc(Nc3ncc(F)c(Nc4cccc(O)c4)n3)ccc2o1 [Compound R926478, N2-(2-Carboxybenzofuran-5-yl)-5-fluoro-N4-(3-hydroxyphenyl)-2,4-pyrimidinediamine]",> 10 µM
5,"Cc1ccc(CNc2ncc(F)c(Nc3ccc4c(c3)OCCO4)n2)cc1Cl [Compound R908696, N2-(3-chloro-4-methylbenzyl)-N4-(3,4-ethylenedioxyphenyl)-5-fluoro-2,4-pyrimidinediamine]",3.55 µM
6,"COc1ccc(Nc2nc(Nc3cccc(O)c3)ncc2F)c(OC)n1 [Compound R926887, N4-(2,6-Dimethoxypyridin-3-yl)-5-fluoro-N2-(3-hydroxyphenyl)-2,4-pyrimidinediamine]",1.75 µM
7,"Oc1cccc(Nc2ncc(F)c(Nc3ccc4ncccc4c3)n2)c1 [Compound R927019, 5-Fluoro-N2-(3-hydroxyphenyl)-N4-(quinolin-6-yl)-2,4-pyrimidinediamine]",1.18 µM

# Results, then the compound that gave them:
row,IC50,SMILES
1,9 µM,"COC(=O)c1cc(N)cc(Nc2ccnc(Nc3cc(N)cc(C(=O)OC)c3)n2)c1 [Compound R950132, N2,N4-Bis(3-amino-5-methoxycarbonylphenyl)-2,4-pyrimidinediamine]"
2,0.899 µM,"COC(=O)C1Cc2cc(Nc3ncc(F)c(Nc4ccc(OC)nc4OC)n3)ccc2O1 (racemic) [Compound R927032, (±)-N2-(2,3-Dihydro-2-methoxycarbonylbenzofuran-5-yl)-N4-(2,6-dimethoxypyridin-3-yl)-5-fluoro-2,4-pyrimidinediamine]"
3,> 10 µM,"OC(CNc1ncc(F)c(NCC(O)c2ccccc2)n1)c1ccccc1 (stereo not drawn) [Compound R925768, N2,N4-Bis(2-hydroxy-2-phenylethyl)-5-fluoro-2,4-pyrimidinediamine]"
4,2.8 µM,"CCOC(=O)c1cnc(Nc2ccc3c(c2)OCCO3)nc1Nc1ccc2c(c1)OCCO2 [Compound R926252, N2,N4-Bis(3,4-ethylenedioxyphenyl)-5-ethoxycarbonyl-2,4-pyrimidinediamine]"
5,> 10 µM,"Nc1c(F)ccc(Nc2ccnc(Nc3ccc(F)c(N)c3F)n2)c1F [Compound R950131, N2,N4-Bis(3-amino-2,4-difluorophenyl)-2,4-pyrimidinediamine]"
6,> 10 µM,"COc1ccc(Nc2ncc(F)c(Nc3ccc(OC)c(C(=O)O)c3)n2)cc1C(=O)O [Compound R945067, N2,N4-Bis(3-carboxy-4-methoxyphenyl)-5-fluoro-2,4-pyrimidinediamine]"
7,4.25 µM,"Nc1ccc(Nc2ncc(F)c(Nc3ccc(N)cc3)n2)cc1 [Compound R950121, N2,N4-Bis(4-aminophenyl)-5-fluoro-2,4-pyrimidinediamine Hydrogen Chloride Salt]"
8,3.62 µM,"CCOC(=O)C1CCN(C(=O)c2cccc(Nc3ncc(F)c(Nc4cccc(O)c4)n3)c2)CC1 [Compound R926939, N2-[3-[[4-(Ethoxycarbonyl)piperidino]carbonyl]phenyl]-5-fluoro-N4-(3-hydroxyphenyl)-2,4-pyrimidinediamine]"
9,> 10 µM,"Cc1onc(-c2ccccc2)c1Nc1ncc(F)c(Nc2ccc3c(c2)OCCO3)n1 [Compound R926743, N4-(3,4-Ethylenedioxyphenyl)-5-fluoro-N2-(3-phenyl-5-methylisoxazol-4-yl)-2,4-pyrimidinediamine]"
10,4.44 µM,"CCOC(=O)C1CCN(C(=O)c2cccc(Nc3ncc(F)c(Nc4ccc5cc[nH]c5c4)n3)c2)CC1 [Compound R926935, N2-[3-[[4-(Ethoxycarbonyl)piperidino]carbonyl]phenyl]-5-fluoro-N4-[(1H)-indol-6-yl]-2,4-pyrimidinediamine]"
11,2.45 µM,"Cc1ccc(Nc2nc(Nc3cccc(O)c3)ncc2F)nc1 [Compound R927017, 5-Fluoro-N2-(3-hydroxyphenyl)-N4-(5-methylpyridin-2-yl)-2,4-pyrimidinediamine]"
12,> 10 µM,"COc1cc(Nc2ncc(F)c(Nc3ccc(C(=O)O)c(OC)c3)n2)ccc1C(=O)O [Compound R945068, N2,N4-Bis(4-carboxy-3-methoxyphenyl)-5-fluoro-2,4-pyrimidinediamine]"
13,> 10 µM,"Cc1noc(C)c1Nc1ncc(F)c(Nc2ccc3c(c2)OCCO3)n1 [Compound R926744, N4-(3,4-Ethylenedioxyphenyl)-5-fluoro-N2-(3,5-dimethylisoxazol-4-yl)-2,4-pyrimidinediamine]"

# Same assay, conditions: Homo sapiens, Mast cell, read-out: CHMC anti-IgE Tryptase
row,SMILES,IC50
1,"Cc1ccc(Nc2ncc(F)c(Nc3ccc(C)c([N+](=O)[O-])c3)n2)cc1[N+](=O)[O-] [Compound R950144, N2,N4-Bis(4-methyl-3-nitrophenyl)-5-fluoro-2,4-pyrimidinediamine]",10 µM
2,"O=[N+]([O-])c1ccc(O)c(Nc2ccnc(Nc3cc([N+](=O)[O-])ccc3O)n2)c1 [Compound R950155, N2,N4-Bis(2-hydroxy-5-nitrophenyl)-2,4-pyrimidinediamine]",> 10 µM
3,"O=[N+]([O-])c1ccc(F)c(Nc2ncc(F)c(Nc3cc([N+](=O)[O-])ccc3F)n2)c1 [Compound R950147, N2,N4-Bis(2-fluoro-5-nitrophenyl)-5-fluoro-2,4-pyrimidinediamine]",> 10 µM
4,"COc1ccc([N+](=O)[O-])cc1Nc1ncc(F)c(Nc2cc([N+](=O)[O-])ccc2OC)n1 [Compound R950151, N2,N4-Bis(2-methoxy-5-nitrophenyl)-5-fluoro-2,4-pyrimidinediamine]",> 10 µM
5,"Cc1ccc([N+](=O)[O-])cc1Nc1ncc(F)c(Nc2cc([N+](=O)[O-])ccc2C)n1 [Compound R950146, N2,N4-Bis(2-methyl-5-nitrophenyl)-5-fluoro-2,4-pyrimidinediamine]",> 10 µM

# Same assay, conditions: Low Density CHMC, anti-IgE activation, tryptase readout; read-out: CHMC anti-IgE Tryptase
row,IC50,SMILES
1,1.41 µM,"CNC(=O)COc1cccc(Nc2ncc(F)c(Nc3cc(C)ccn3)n2)c1 [Compound R927016, 5-Fluoro-N2-[3-(N-methylamino)carbonylmethyleneoxyphenyl]-N4-(4-methylpyridin-2-yl)-2,4-pyrimidinediamine]"
2,0.327 µM,CCOC(=O)CNc1cccc(Nc2ncc(F)c(Nc3cccc(O)c3)n2)c1 [Compound R950216]
3,> 10 µM,O=C(O)Cc1cccc(Nc2ncc(F)c(Nc3cccc(CC(=O)O)c3)n2)c1 [Compound R935117]
